Reference: PubChem BioAssay AID1963446 (Molecular Pharmacology Branch, DTP, NCI, 2024)
“And” between values parts separate entries of the source, which are not always exact repeats. Identical values can stand only once.

Test system: 993429-296-R-J1-PDC complex spheroid growth, percent test/control
Assay: Anticancer human tumor 993429-296-R-J1-PDC patient-derived uterine sarcoma cell line growth inhibition [Asc]
Conditions: for viability, T/C: stronger effect = lower value
Procedure, shortened: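 Complex solid-tumor spheroids incorporating human endothelial and mesenchymal stem cells received single agents or combinations over half-log dilution ranges anchored to clinical Cmax.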

[1] = curve of first compound, second compound 0.1 µM
[2] = curve of first compound, second compound 0.316 µM
[3] = curve of first compound, second compound 1 µM
[4] = curve of first compound, second compound 3.16 µM
[5] = curve of first compound, second compound 10 µM
[6] = second compound 0.1 µM, first compound 0.0316 µM
[7] = second compound 0.1 µM, first compound 0.1 µM
[8] = second compound 0.1 µM, first compound 0.316 µM
[9] = second compound 0.1 µM, first compound 1 µM
[10] = second compound 0.1 µM, first compound 3.16 µM
[11] = second compound 0.1 µM, first compound 10 µM
[12] = second compound 0.316 µM, first compound 0.0316 µM
[13] = second compound 0.316 µM, first compound 0.1 µM
[14] = second compound 0.316 µM, first compound 0.316 µM
[15] = second compound 0.316 µM, first compound 1 µM
[16] = second compound 0.316 µM, first compound 3.16 µM
[17] = second compound 0.316 µM, first compound 10 µM
[18] = second compound 1 µM, first compound 0.0316 µM
[19] = second compound 1 µM, first compound 0.1 µM
[20] = second compound 1 µM, first compound 0.316 µM
[21] = second compound 1 µM, first compound 1 µM
[22] = second compound 1 µM, first compound 3.16 µM
[23] = second compound 1 µM, first compound 10 µM
[24] = second compound 3.16 µM, first compound 0.0316 µM
[25] = second compound 3.16 µM, first compound 0.1 µM
[26] = second compound 3.16 µM, first compound 0.316 µM
[27] = second compound 3.16 µM, first compound 1 µM
[28] = second compound 3.16 µM, first compound 3.16 µM
[29] = second compound 3.16 µM, first compound 10 µM
[30] = second compound 10 µM, first compound 0.0316 µM
[31] = second compound 10 µM, first compound 0.1 µM
[32] = second compound 10 µM, first compound 0.316 µM
[33] = second compound 10 µM, first compound 1 µM
[34] = second compound 10 µM, first compound 3.16 µM
[35] = second compound 10 µM, first compound 10 µM
[36] = curve of first compound, second compound 0.01 µM
[37] = curve of first compound, second compound 0.0316 µM
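Further: spheroids exposed to compounds for seven days.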

With `C=C(F)C(=O)N1CCN(c2nc(OCC3CCCN3C)nc3c2CCN(c2cccc4cccc(Cl)c24)C3)CC1CC#N` (configuration not stated) + Cc1c(S(C)(=O)=O)c(-c2cc(F)cc(N3CCN(c4ccc(NS(=O)(=O)c5ccc(NC(CCN6CCC(C(=O)OCCCP(=O)(O)O)CC6)CSc6ccccc6)c(S(=O)(=O)C(F)(F)F)c5)cc4)CC3)c2)c(-c2ccc(Cl)cc2)n1C(C)C the IC50 [1] was 494 nM, the IC50 [2] was 460 nM and the IC50 [3] was 321 nM. For the same molecule, the IC50 [4] was less than 31.6 nM, the IC50 [5] was 553 nM and the viability, T/C [6] was 57.1%. For the same molecule, the viability, T/C [7] was 85%, the viability, T/C [8] was 69.2% and the viability, T/C [9] was 17.5%. For the same molecule, the viability, T/C [10] was 0.55%, the viability, T/C [11] was 0.23% and the viability, T/C [12] was 71.8%. It also gave a viability, T/C [13] of 77.1%, a viability, T/C [14] of 70.6% and a viability, T/C [15] of 7.35%. For the same molecule, the viability, T/C [16] was 0.21%, the viability, T/C [17] was 0.19% and the viability, T/C [18] was 49.5%. It also gave a viability, T/C [19] of 60.8%, a viability, T/C [20] of 50.5% and a viability, T/C [21] of 5.26%. For the same molecule, the viability, T/C [22] was 0.3%, the viability, T/C [23] was 0.14% and the viability, T/C [24] was 46.9%. The viability, T/C [25] was 49.6%, the viability, T/C [26] was 35.9% and the viability, T/C [27] was 7.98%. For the same molecule, the viability, T/C [28] was 0.08%, the viability, T/C [29] was 0.17% and the viability, T/C [30] was 78.9%. For the same molecule, the viability, T/C [31] was 108%, the viability, T/C [32] was 87.3% and the viability, T/C [33] was 10.4%. The viability, T/C [34] was 0.43% and the viability, T/C [35] was 0.3%.
`Cc1nc(N2CCC3(CC2)COC(C)C3N)c(CO)nc1Sc1ccnc(N)c1Cl` (configuration not stated) + CNC(C)C(=O)NC1CN(S(=O)(=O)c2cccc(S(=O)(=O)N3CCC4CCC(C(=O)NC(c5ccccc5)c5ccccc5)N4C(=O)C(NC(=O)C(C)NC)C3)c2)CCC2CCC(C(=O)NC(c3ccccc3)c3ccccc3)N2C1=O showed an IC50 [36] of 103 nM, an IC50 [37] of 84.7 nM and an IC50 [1] of 56.8 nM. For the same molecule, the IC50 [2] was less than 9.49 nM, the IC50 [3] was 107 nM and the viability, T/C (second compound 0.01 µM, first compound 0.00949 µM) was 68.6%. The viability, T/C (second compound 0.01 µM, first compound 0.03 µM) was 61.1%, the viability, T/C (second compound 0.01 µM, first compound 0.0949 µM) was 49.5% and the viability, T/C (second compound 0.01 µM, first compound 0.3 µM) was 42.5%. The viability, T/C (second compound 0.01 µM, first compound 0.949 µM) was 37%, the viability, T/C (second compound 0.01 µM, first compound 3 µM) was 32.2% and the viability, T/C (second compound 0.0316 µM, first compound 0.00949 µM) was 67.5%. The viability, T/C (second compound 0.0316 µM, first compound 0.03 µM) was 57.5%, the viability, T/C (second compound 0.0316 µM, first compound 0.0949 µM) was 50.9% and the viability, T/C (second compound 0.0316 µM, first compound 0.3 µM) was 39.4%. It also gave a viability, T/C (second compound 0.0316 µM, first compound 0.949 µM) of 36.7%, a viability, T/C (second compound 0.0316 µM, first compound 3 µM) of 30.9% and a viability, T/C (second compound 0.1 µM, first compound 0.00949 µM) of 60.1%. It also gave a viability, T/C (second compound 0.1 µM, first compound 0.03 µM) of 54.9%, a viability, T/C (second compound 0.1 µM, first compound 0.0949 µM) of 45.2% and a viability, T/C (second compound 0.1 µM, first compound 0.3 µM) of 39.8%. The viability, T/C (second compound 0.1 µM, first compound 0.949 µM) was 29%, the viability, T/C (second compound 0.1 µM, first compound 3 µM) was 28.3% and the viability, T/C (second compound 0.316 µM, first compound 0.00949 µM) was 43.6%. For the same molecule, the viability, T/C (second compound 0.316 µM, first compound 0.03 µM) was 48.9%, the viability, T/C (second compound 0.316 µM, first compound 0.0949 µM) was 51.9% and the viability, T/C (second compound 0.316 µM, first compound 0.3 µM) was 41.3%. For the same molecule, the viability, T/C (second compound 0.316 µM, first compound 0.949 µM) was 32.4%, the viability, T/C (second compound 0.316 µM, first compound 3 µM) was 29.2% and the viability, T/C (second compound 1 µM, first compound 0.00949 µM) was 53.1%. The viability, T/C (second compound 1 µM, first compound 0.03 µM) was 48.1%, the viability, T/C (second compound 1 µM, first compound 0.0949 µM) was 52.2% and the viability, T/C (second compound 1 µM, first compound 0.3 µM) was 40%. It also gave a viability, T/C (second compound 1 µM, first compound 0.949 µM) of 20.5% and a viability, T/C (second compound 1 µM, first compound 3 µM) of 26.7%.
For `C=CC(=O)N1CCN(c2nc(=O)n(-c3c(C)ccnc3C(C)C)c3nc(-c4c(O)cccc4F)c(F)cc23)C(C)C1` (configuration not stated), the viability, T/C (compound 0.0316 µM) was 90.9% and 96.8% and 96.9%, the viability, T/C (compound 0.1 µM) was 104% and 92.1% and 93.1% and the viability, T/C (compound 0.316 µM) was 104% and 92.4% and 105%. The viability, T/C (compound 1 µM) was 102% and 106% and 110%, the viability, T/C (compound 3.16 µM) was 64.9% and 109% and 115% and the viability, T/C (compound 10 µM) was 72.8% and 77% and 94%. It also gave an IC50 (curve of compound) greater than 10000 nM.
With `COc1c(OCCCN2CCOCC2)ccc2c3n(c(=NC(=O)c4cnc(N)nc4)nc12)CCN3` + CNC(C)C(=O)NC1CN(S(=O)(=O)c2cccc(S(=O)(=O)N3CCC4CCC(C(=O)NC(c5ccccc5)c5ccccc5)N4C(=O)C(NC(=O)C(C)NC)C3)c2)CCC2CCC(C(=O)NC(c3ccccc3)c3ccccc3)N2C1=O the IC50 [36] was 16.3 nM, the IC50 [37] was 9.29 nM and the IC50 [1] was 12.1 nM. It also gave an IC50 [2] of 5.34 nM, an IC50 [3] of 4.09 nM and a viability, T/C (second compound 0.01 µM, first compound 0.00316 µM) of 68.8%. It also gave a viability, T/C (second compound 0.01 µM, first compound 0.01 µM) of 60.1%, a viability, T/C (second compound 0.01 µM, first compound 0.0316 µM) of 36.4% and a viability, T/C (second compound 0.01 µM, first compound 0.1 µM) of 12.3%. It also gave a viability, T/C (second compound 0.01 µM, first compound 0.316 µM) of 3.69%, a viability, T/C (second compound 0.01 µM, first compound 1 µM) of 1.21% and a viability, T/C (second compound 0.0316 µM, first compound 0.00316 µM) of 54.7%. It also gave a viability, T/C (second compound 0.0316 µM, first compound 0.01 µM) of 50%, a viability, T/C (second compound 0.0316 µM, first compound 0.0316 µM) of 32.9% and a viability, T/C (second compound 0.0316 µM, first compound 0.1 µM) of 12.4%. It also gave a viability, T/C (second compound 0.0316 µM, first compound 0.316 µM) of 4.55%, a viability, T/C (second compound 0.0316 µM, first compound 1 µM) of 1.09% and a viability, T/C (second compound 0.1 µM, first compound 0.00316 µM) of 57.1%. The viability, T/C (second compound 0.1 µM, first compound 0.01 µM) was 56.9%, the viability, T/C [6] was 29.9% and the viability, T/C [7] was 12.2%. For the same molecule, the viability, T/C [8] was 3.36%, the viability, T/C [9] was 1.18% and the viability, T/C (second compound 0.316 µM, first compound 0.00316 µM) was 58%. The viability, T/C (second compound 0.316 µM, first compound 0.01 µM) was 39.8%, the viability, T/C [12] was 24.5% and the viability, T/C [13] was 8.8%. The viability, T/C [14] was 3.2%, the viability, T/C [15] was 1.42% and the viability, T/C (second compound 1 µM, first compound 0.00316 µM) was 52.4%. It also gave a viability, T/C (second compound 1 µM, first compound 0.01 µM) of 41.6%, a viability, T/C [18] of 24.8% and a viability, T/C [19] of 11.3%. It also gave a viability, T/C [20] of 4.7% and a viability, T/C [21] of 0.9%.
Molecule `O=C(c1cc(Cc2n[nH]c(=O)c3ccccc23)ccc1F)N1CCN(C(=O)C2CC2)CC1` + Cc1c(S(C)(=O)=O)c(-c2cc(F)cc(N3CCN(c4ccc(NS(=O)(=O)c5ccc(NC(CCN6CCC(C(=O)OCCCP(=O)(O)O)CC6)CSc6ccccc6)c(S(=O)(=O)C(F)(F)F)c5)cc4)CC3)c2)c(-c2ccc(Cl)cc2)n1C(C)C has an IC50 [1] of 944 nM, an IC50 [2] of 1110 nM and an IC50 [3] of 773 nM. It also gave an IC50 [4] of less than 31.6 nM, an IC50 [5] of 1480 nM and a viability, T/C [6] of 89.2%. For the same molecule, the viability, T/C [7] was 53.2%, the viability, T/C [8] was 56.9% and the viability, T/C [9] was 59.6%. For the same molecule, the viability, T/C [10] was 37.8%, the viability, T/C [11] was 9.27% and the viability, T/C [12] was 55.8%. The viability, T/C [13] was 51.1%, the viability, T/C [14] was 69.8% and the viability, T/C [15] was 49.3%. The viability, T/C [16] was 29.1%, the viability, T/C [17] was 8.15% and the viability, T/C [18] was 51.5%. The viability, T/C [19] was 55.8%, the viability, T/C [20] was 57.2% and the viability, T/C [21] was 48.2%. For the same molecule, the viability, T/C [22] was 20.5%, the viability, T/C [23] was 5.17% and the viability, T/C [24] was 42%. For the same molecule, the viability, T/C [25] was 39%, the viability, T/C [26] was 44.3% and the viability, T/C [27] was 32.6%. It also gave a viability, T/C [28] of 19.3%, a viability, T/C [29] of 4.24% and a viability, T/C [30] of 86.9%. The viability, T/C [31] was 85.8%, the viability, T/C [32] was 59.9% and the viability, T/C [33] was 70%. For the same molecule, the viability, T/C [34] was 13.5% and the viability, T/C [35] was 1.63%.
